The test system of data set [1] is MV4;11 cells. The data set is described as follows: Proliferation assay, MV4;11 (CellTiter-Glo, 7 days). In kind it is cell-based, human. Particulars: read-out: MV-4-11 IC50. A digest of the protocol:
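Cells seeded at 125 (MOLM-13), 300 (MV4;11), 75 (OCI-AML3) or 200 (HEL) per well were exposed to 3.16-fold compound dilutions (0.1% DMSO) for 7 days at 37° C. Viability by CellTiter-Glo luminescence, normalized to DMSO (100%) and day-0 plate (0%); IC50 from one-site dose-response fit.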

Data set [2] concerns the target hERG (Homo sapiens (Human), UniProt Q12809). The data set is described as follows: hERG assay 1 (standard), SyncroPatch 384PE. In kind it is cell-based. Particulars: CHO cells, room temperature, up to 40 uM. The method, boiled down: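 Automated patch clamp on hERG-expressing CHO-K1 cells at room temperature, +60/−40 mV protocol every 15 s. Six-point cumulative concentrations 139 nM to 40 uM (0.33% DMSO final); IC50 from one-site fit of % inhibition. Wells required ≥30 MegaOhm seal, current >0.2 nA, Z prime >0.4.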

Data set [3] can be described thus: Human liver microsomes (HLMs) intrinsic clearance assay. In kind it is in vitro ADME. As to conditions: for microsomal CLint at 1 µM: pH 7.4, HLM CLint. In general terms: Liver microsomes are a subcellular fraction often used to study metabolism.
[4] abbreviates: human, microsomes, 1 µM, pH 7.4.

SMILES strings stand for the structures. Where two headings read alike, the source gives them in different places.

Chain of hERG (Q12809 whole entry): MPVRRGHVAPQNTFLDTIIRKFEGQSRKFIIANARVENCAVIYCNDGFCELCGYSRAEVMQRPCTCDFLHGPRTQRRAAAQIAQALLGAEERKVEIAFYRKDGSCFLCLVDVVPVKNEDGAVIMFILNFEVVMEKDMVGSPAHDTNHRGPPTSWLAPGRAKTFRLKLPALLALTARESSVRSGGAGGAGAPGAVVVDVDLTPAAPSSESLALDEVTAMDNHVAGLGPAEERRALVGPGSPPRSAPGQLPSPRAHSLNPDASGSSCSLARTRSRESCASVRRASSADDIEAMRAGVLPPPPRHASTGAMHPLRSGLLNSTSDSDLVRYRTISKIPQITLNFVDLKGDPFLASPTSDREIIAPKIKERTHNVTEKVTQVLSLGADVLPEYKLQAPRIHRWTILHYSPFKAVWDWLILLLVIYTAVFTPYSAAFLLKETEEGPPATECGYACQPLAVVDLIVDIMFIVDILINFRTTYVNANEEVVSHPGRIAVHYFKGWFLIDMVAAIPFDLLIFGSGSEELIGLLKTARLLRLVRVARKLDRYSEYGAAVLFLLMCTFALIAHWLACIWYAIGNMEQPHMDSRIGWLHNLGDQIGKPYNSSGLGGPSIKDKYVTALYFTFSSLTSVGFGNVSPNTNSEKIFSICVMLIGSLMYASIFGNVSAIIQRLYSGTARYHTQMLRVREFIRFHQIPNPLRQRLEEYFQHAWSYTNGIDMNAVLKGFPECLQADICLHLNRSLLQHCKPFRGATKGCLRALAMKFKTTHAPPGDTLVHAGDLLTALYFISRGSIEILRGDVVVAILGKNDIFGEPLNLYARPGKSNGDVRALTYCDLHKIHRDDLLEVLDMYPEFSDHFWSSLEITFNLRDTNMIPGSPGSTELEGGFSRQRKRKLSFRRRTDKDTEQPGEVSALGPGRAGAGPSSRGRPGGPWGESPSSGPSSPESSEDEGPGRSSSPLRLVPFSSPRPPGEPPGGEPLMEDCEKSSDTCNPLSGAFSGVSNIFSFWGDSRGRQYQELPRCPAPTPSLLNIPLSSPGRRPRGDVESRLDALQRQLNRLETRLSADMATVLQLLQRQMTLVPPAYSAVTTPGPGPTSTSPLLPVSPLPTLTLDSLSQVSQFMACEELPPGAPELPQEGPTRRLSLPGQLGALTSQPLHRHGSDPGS

Take `CC(C)N(C(=O)c1cc(F)ccc1-n1cc(C(=O)C2CN(C(=O)[C@H]3N[C@H]4C[C@@H]3[C@@H](F)C4)C2)c2ccncc21)C(C)C` [Example 7, 5-Fluoro-2-(3-(1-((1S,3S,4S,5S)-5-fluoro-2-azabicyclo[2.2.1]heptane-3-carbonyl)azetidine-3-carbonyl)-1H-pyrrolo[2,3-c]pyridin-1-yl)-N,N-diisopropylbenzamide]: the IC50 in data set [1] (Homo sapiens, MV4-11, 168 h) is 72 nM; in data set [2], greater than 40000 nM. In data set [3] (human, microsomes), this compound had an intrinsic clearance (microsomal CLint) at 1 µM of 148 µL/min/mg.
For `Cc1c(C(=O)C2CCN(C(=O)[C@H]3NC[C@@H]4C[C@@H]43)CC2)c2ccncc2n1-c1ccc(F)cc1-c1cnccc1C(C)C` [Example 54, (1-((1S,2S,5R)-3-Azabicyclo[3.1.0]hexane-2-carbonyl)piperidin-4-yl)(1-(4-fluoro-2-(4-isopropylpyridin-3-yl)phenyl)-2-methyl-1H-pyrrolo[2,3-c]pyridin-3-yl)methanone], in that order: 40 nM, 13100 nM and 73 µL/min/mg.
The like results for `CC(C)c1ncccc1-c1cc(F)ccc1-n1cc(C(=O)C2CCN(C(=O)[C@H]3N[C@@H]4CC[C@H]3C4)CC2)c2ccncc21` [Example 38, (1-((1R,3S,4S)-2-Azabicyclo[2.2.1]heptane-3-carbonyl)piperidin-4-yl)(1-(4-fluoro-2-(2-isopropylpyridin-3-yl)phenyl)-1H-pyrrolo[2,3-c]pyridin-3-yl)methanone] were, in that order, 24 nM, greater than 40000 nM and 131 µL/min/mg.
For `CC(C)N(C(=O)c1cc(F)ccc1-n1cc(C(=O)[C@H]2CCN(C(=O)[C@H]3N[C@@H]4CC[C@H]3C4)C2)c2ccncc21)C(C)C` [Example 2, 2-(3-((S)-1-((1R,3S,4S)-2-Azabicyclo[2.2.1]heptane-3-carbonyl)pyrrolidine-3-carbonyl)-1H-pyrrolo[2,3-c]pyridin-1-yl)-5-fluoro-N,N-diisopropylbenzamide], in that order: 97 nM, greater than 40000 nM and 43 µL/min/mg.
Turning to `C[C@@H]1CCC[C@H](C)N1C(=O)c1cc(F)ccc1-n1cc(C(=O)C2CCN(C(=O)[C@H]3N[C@@H]4CC[C@H]3C4)CC2)c2ccncc21` [Example 33, (1-((1R,3S,4S)-2-Azabicyclo[2.2.1]heptane-3-carbonyl)piperidin-4-yl)(1-(2-((2R,6S)-2,6-dimethylpiperidine-1-carbonyl)-4-fluorophenyl)-1H-pyrrolo[2,3-c]pyridin-3-yl)methanone], the 50% inhibitory concentration (IC50) in data set [1] (Homo sapiens, MV4-11, 168 h) was 103 nM; in data set [2] it was greater than 40000 nM. Also, the microsomal CLint at 1 µM in data set [3] (human, microsomes) turned out to be 50 µL/min/mg.
For `CC(C)N(C(=O)c1cc(F)ccc1-n1cc(C(=O)C2CCN(C(=O)[C@H]3NC[C@@H]4CC[C@@H]43)CC2)c2ccncc21)C(C)C` (relative stereo) [Example 25, rel-2-(3-(1-((1R,2R,5S)-3-Azabicyclo[3.2.0]heptane-2-carbonyl)piperidine-4-carbonyl)-1H-pyrrolo[2,3-c]pyridin-1-yl)-5-fluoro-N,N-diisopropylbenzamide], in that order: 24 nM, greater than 40000 nM and 94 µL/min/mg.
For `C[C@@H]1COC[C@@H](C)N1C(=O)c1cc(F)ccc1-n1cc(C(=O)C2CCN(C(=O)[C@H]3N[C@@H]4CC[C@H]3C4)CC2)c2ccncc21` [Example 34, (1-((1R,3S,4S)-2-Azabicyclo[2.2.1]heptane-3-carbonyl)piperidin-4-yl)(1-(2-((3R,5R)-3,5-dimethylmorpholine-4-carbonyl)-4-fluorophenyl)-1H-pyrrolo[2,3-c]pyridin-3-yl)methanone], in that order: 39 nM, greater than 40000 nM and 11 µL/min/mg.
On to `Cc1c(C(=O)[C@@H]2CCN(C(=O)[C@H]3NC[C@@H]4C[C@@H]43)[C@@H](C)C2)c2ccncc2n1-c1ccc(F)cc1C(=O)N(CC(F)(F)F)C(C)C` (single isomer, unassigned) [Example 53-3, 2-(3-((2R*,4S*)-1-((1S,2S,5R)-3-Azabicyclo[3.1.0]hexane-2-carbonyl)-2-methylpiperidine-4-carbonyl)-2-methyl-1H-pyrrolo[2,3-c]pyridin-1-yl)-5-fluoro-N-isopropyl-N-(2,2,2-trifluoroethyl)benzamide], for which the IC50 is 13 nM in data set [1] and 31400 nM in data set [2]. Moreover, the “HLM CLint” value in data set [3] (setting [4]) worked out at 155 µL/min/mg.
As to `CC(C)c1ncncc1-c1cc(F)ccc1-n1cc(C(=O)C2CCN(C(=O)[C@H]3N[C@@H]4CC[C@H]3C4)CC2)c2ccncc21` [Example 37, (1-((1R,3S,4S)-2-Azabicyclo[2.2.1]heptane-3-carbonyl)piperidin-4-yl)(1-(4-fluoro-2-(4-isopropylpyrimidin-5-yl)phenyl)-1H-pyrrolo[2,3-c]pyridin-3-yl)methanone], the half-maximal inhibitory concentration (IC50) in data set [1] (Homo sapiens, MV4-11, 168 h) is 34 nM; in data set [2], greater than 40000 nM. In data set [3] (human, microsomes), the microsomal CLint at 1 µM stood at 52 µL/min/mg.
On to `CCN(C(=O)c1cc(F)ccc1-n1c(C)c(C(=O)C2CCN(C(=O)[C@@H]3CCC4(CC4)N3)CC2)c2ccncc21)C(C)C` (single isomer, unassigned) [Example 49-2], for which the values for the IC50 in data set [1] and in data set [2] were 34 nM and greater than 38000 nM, respectively. Also, in data set [3] (1 mg/mL HLM, NADPH), the “HLM CLint” value is 127 µL/min/mg.
For the compound `CC(C)N(C(=O)c1cc(F)ccc1-n1cc(C(=O)C2CCN(C(=O)[C@H]3N[C@H]4C[C@@H]3[C@@H](F)C4)CC2)c2ccncc21)C(C)C` [Example 22, 5-Fluoro-2-(3-(1-((1S,3S,4S,5S)-5-fluoro-2-azabicyclo[2.2.1]heptane-3-carbonyl)piperidine-4-carbonyl)-1H-pyrrolo[2,3-c]pyridin-1-yl)-N,N-diisopropylbenzamide], the half-inhibitory concentration (IC50) was 17 nM in data set [1] (Homo sapiens, MV4-11, 168 h) and greater than 40000 nM in data set [2]. Further, the intrinsic clearance (microsomal CLint) at 1 µM in data set [3] (human, microsomes) amounted to 91 µL/min/mg.
For `CC(C)N(C(=O)c1cc(F)ccc1-n1cc(C(=O)[C@H]2CCN(C[C@H]3CC[C@H](NS(C)(=O)=O)CC3)C2)c2ccncc21)C(C)C` [Example 1, 5-Fluoro-N,N-diisopropyl-2-(3-((S)-1-(((1r,4S)-4-(methylsulfonamido)-cyclohexyl)methyl)pyrrolidine-3-carbonyl)-1H-pyrrolo[2,3-c]pyridin-1-yl)benzamide], in that order: 166 nM, 9900 nM and 178 µL/min/mg.
The like results for `CC(C)c1ncccc1-c1cc(F)ccc1-n1cc(C(=O)C2CN(C(=O)[C@H]3N[C@@H]4CC[C@H]3C4)C2)c2ccncc21` [Example 10, (1-((1R,3S,4S)-2-Azabicyclo[2.2.1]heptane-3-carbonyl)azetidin-3-yl)(1-(4-fluoro-2-(2-isopropylpyridin-3-yl)phenyl)-1H-pyrrolo[2,3-c]pyridin-3-yl)methanone] were, in that order, 24 nM, greater than 40000 nM and 182 µL/min/mg.
Consider `CCN(C(=O)c1cc(F)ccc1-n1c(C)c(C(=O)C2CCN(C(=O)[C@@H]3CCC(C)(C)N3)CC2)c2ccncc21)C(C)C` (single isomer, unassigned) [Example 50-2], for which the half-inhibitory concentration (IC50) in data set [1] (Homo sapiens, MV4-11, 168 h) is 39 nM; in data set [2], greater than 40000 nM. For the same compound, the “HLM CLint” value in data set [3] (setting [4]) worked out at 48 µL/min/mg.
Regarding `Cc1c(C(=O)C2CCN(C(=O)[C@H]3NC[C@@H]4C[C@@H]43)CC2)c2ccncc2n1-c1ccc(F)cc1C(=O)N(C(C)C)C(C)C` (single isomer, unassigned) [Example 55-1], the half-maximal inhibitory concentration (IC50) in data set [1] is 1720 nM; in data set [2] it was greater than 40000 nM. The microsomal CLint at 1 µM in data set [3] (human, microsomes) came to 125 µL/min/mg.
Take `CC(C)N(C(=O)c1cc(F)ccc1-n1cc(C(=O)C2CN(C(=O)[C@H]3N[C@@H]4CC[C@H]3C4)C2)c2ccncc21)C(C)C` [Example 5, 2-(3-(1-((1R,3S,4S)-2-Azabicyclo[2.2.1]heptane-3-carbonyl)azetidine-3-carbonyl)-1H-pyrrolo[2,3-c]pyridin-1-yl)-5-fluoro-N,N-diisopropylbenzamide]: the IC50 is 85 nM in data set [1] (Homo sapiens, MV4-11, 168 h) and greater than 40000 nM in data set [2]. The compound also showed a microsomal CLint at 1 µM in data set [3] (human, microsomes) of 35 µL/min/mg.
The like results for `CC(C)N(C(=O)c1cc(F)ccc1-n1cc(C(=O)C2CCN(C(=O)[C@H]3NC4CCC3CC4)CC2)c2ccncc21)C(C)C` [Example 20, (S)-2-(3-(1-(2-Azabicyclo[2.2.2]octane-3-carbonyl)piperidine-4-carbonyl)-1H-pyrrolo[2,3-c]pyridin-1-yl)-5-fluoro-N,N-diisopropylbenzamide] were, in that order, 25 nM, greater than 40000 nM and 27 µL/min/mg.
For `CCN(C(=O)c1cc(F)ccc1-n1c(C)c(C(=O)C2CCN(C(=O)[C@H]3NC[C@@H]4C[C@@H]43)CC2)c2ccncc21)C(C)C` [Example 47, 2-(3-(1-((1S,2S,5R)-3-Azabicyclo[3.1.0]hexane-2-carbonyl)piperidine-4-carbonyl)-2-methyl-1H-pyrrolo[2,3-c]pyridin-1-yl)-N-ethyl-5-fluoro-N-isopropylbenzamide], in that order: 33 nM, greater than 40000 nM and 54 µL/min/mg.
Consider `CCN(C(=O)c1cc(F)ccc1-n1c(C)c(C(=O)C2CCN(C(=O)[C@H]3NC[C@@H]4C[C@@H]43)CC2)c2ccncc21)C(C)C` (single isomer, unassigned) [Example 48-2], for which the concentration for half-maximal inhibition (IC50) in data set [1] was 29 nM; in data set [2] it was greater than 40000 nM. Further, in data set [3] (setting [4]), the “HLM CLint” value was 55 µL/min/mg.

The IC50 is the point on the concentration scale where inhibition reaches its midpoint. A word on the microsomal CLint: it is the rate of metabolic loss divided by the concentration.

These data come from US20240335431A1, “1-H-PYRROLO[2,3-c]PYRIDINE COMPOUNDS” (Acerta Pharma B.V., priority 2023, published 2024).
